Experimental data reported in patent US20120135863A1, “COMPOSITION AND METHOD FOR PROMOTING PLANT ROOT GROWTH” (priority 2009, published 2012).

Tested on: Raphanus sativus
Assay: Root growth promotion test: main root length of Raphanus sativus seedlings in seed growing bag
Format: in vivo
Details: compound 2 at 3 ppm, compound I at 10 ppm, mixture 3 ppm compound 2 + 10 ppm compound I; seeds on cardboard impregnated with 17 ml solution; 25° C., 7 days; average of three repeats
Method: One (1) part of each of the compound 2 and the compound I was dissolved in 99 parts of dimethyl sulfoxide and each of the resultant solutions was diluted with ion-exchange water so as to adjust the concentrations of the compound 2 and the compound I to 3 ppm and 10 ppm, respectively to thereby prepare respective test chemical solutions.
In the same manner, chemical solutions were prepared so as to adjust the concentrations of the compound 2 and the compound I to 6 ppm and 20 ppm, respectively, and then the respective chemical solutions were mixed in an equivalent amount to prepare a mixed test chemical solution containing 3 ppm of the compound 2 and 10 ppm of the compound I.
A cardboard in a seed growing bag (measuring 177 mm×163 mm, manufactured by Daiki Rika Kogyo Co., Ltd.) was impregnated with 17 ml of each of these test chemical solutions, and 3 seeds of Raphanus sativus were sown on the cardboard. The seed growing bag was placed in a plastic container, and the plastic container was sealed. After culturing in a bright place at 25° C. for 7 days, the length of main root was measured. For comparison, the test was conducted in the same manner without treating with the test chemical solution, and the length of the main root was measured. […]

Compound: O=C(O)CCC(=O)NCCc1ccccc1 [Compound I, 4-oxo-4-[(2-phenylethyl)amino]-butyric acid]
- Relative value (main root length, non-treated control group as 100): 148
